# Laboratory results reported in patent publication US11058700B2, “Macrocyclic lactones and uses thereof as modulators of purinergic receptors” (City of Hope, priority 2015, dated 2021).
# Where a SMILES comes first, the peptide text is derived from it. The star is where a group is joined. Cbz = O=C(OCc1ccccc1)*; CH2F = FC*
# What was measured:
# Format in all cases: cell-based, mouse
# 4T1.2 shRNA (P2X7) = experiment: Synergy between Ivermectin and ATP (CI), P2X7 knockdown cells
# Procedure: (§1) FIGS. 5A-5E. CaMKII-independent P2X7-mediated killing. FIG. 5A: qPCR showing the extent of gene knockdown in 4T1.2 cells transfected with shRNA targeting the P2X7 receptor versus non-targeting (NT) control (left panel). […] One million wt, shRNA(NT) and shRNA(P2X7) 4T1.2 cells were plated and incubated for 48 h before evaluation of cell numbers and viability. FIG. 5B: P2X7 knockdown cells are more resistant to ATP and the ATP/IVM combo. 4T1.2 cells were treated for 24 h with 1-3 mM ATP, 6-10 μM Ivermectin, or combinations of ATP and Ivermectin. P2X7 knockdown suppresses the synergy between Ivermectin and high dose ATP, as shown by calculation of combination index (CI) values, see Table 2. FIG. 5C: P2X7 knockdown cells are resistant to ATP/Ivermectin induced membrane permeabilization (Asterisk (*) indicates p<0.05). […] FIG. 5E: Comparison of the protective effects of P2X7, CaMKII, and NADPH oxidases inhibition in short-term (4 h, 32 μM IVM) and long-term (24 h, 12 μM IVM) exposure of 4T1.2 cells to Ivermectin. Asterisk (*) indicates p<0.05 relative to Ivermectin alone controls.
# (§2) Cell viability. Cancer cells were plated on 96 well flat-bottom plates and allowed to attach overnight. Cells were then pre-incubated with drugs for 1 h and treated with Ivermectin for 4 h. In the case of 24 h and 48 h incubations the cells, Ivermectin and drugs were plated together. All treatments and controls were done in triplicate wells and results were validated in at least two independent experiments. Following treatment the plates were washed once with PBS and cell viability was measured using the acid phosphatase assay. Briefly, cells were incubated for 1h at 37° C. in 100 μL assay buffer (0.16 M sodium acetate, 0.1% Triton-X-100, supplemented with 4-Nitrophenyl phosphate disodium salt hexahydrate, Sigma Aldrich, at 0.00263 g/ml). Reaction was stopped using 10 μL of 1N sodium hydroxide. Absorption at 405 nm was measured within 10 min using a multi-well plate reader. Mode of cell death and viability of cells in suspension was evaluated using flow cytometry. Briefly, cancer cells were pre-incubated with drugs for 30 min to 1 h, as indicated, treated with Ivermectin for 4 h in 5 ml FACS tubes , washed twice in PBS and stained with PE-conjugated Annexin V and 7AAD (1 μl per 100 μl/200,000 cancer cells) for 15 min.
# (§3) Generation of P2X7 receptor knockdown 4T1.2 cells. 4T1.2 cells were transduced using Sigma mission shRNA lentiviral transduction particle with four P2X7 shRNA (NM_011027/TRCN0000068568, NM_011027/TRCN0000068570, NM_011027/TRCN0000068571, NM_011027/TRCN0000068572) or Non-Target control (SHC002V). The viral particles were added to growing cells in the presence of […] POLYBRENE® (Sigma, St Louis, Mo.), and incubated overnight at 37° C. Puromycin selection (2000 ng/ml) was done from third day onwards to select for stably transformed cells.
# 4T1.2 shRNA (NT) = experiment: Synergy between Ivermectin and ATP (CI), non-targeting control cells
# Procedure: as §1, §2, §3
# 4T1.2 cells = experiment: Cell viability (acid phosphatase assay) of cancer cells treated with Ivermectin; settings: cells treated with Ivermectin (32 μM, 4 h in figure legends) in the presence of the agent
# Procedure: as §2
# 4T1.2 cancer cells = experiment: Synergy between Ivermectin and ROS (CompuSyn CI); settings: 4T1.2, 24 h/48 h
# Procedure: FIGS. 2A-2C. Role of NADPH oxidases-generated ROS. […] 4T1.2 cells were labeled with a ROS detection probe and treated for 1 h with 32 μM Ivermectin in the presence of 1 mM EDTA, 5mM NAC, 5 μM DPI, 2500 μunits/ml Apyrase, 3 mM ATP, and 10 μM KN-62. […] Triangles (▴) indicate significant antagonism CI>1.0. […] 4T1.2 cancer cells were irradiated (10-20 kRad) or treated with H2O2 (10-1000 μM), PTX (0.1-1 μM), or DOX (1-4 μM) and incubated with Ivermectin for 24 h/48 h. Circles (●) indicate significant synergy CI<1.0, see Table 1. Asterisk (*) indicates p<0.05 relative to untreated or Ivermectin alone controls, respectively.
# as §2, with “All treatments and controls were done in triplicate wells and results were validated in at least two independent experiments.” left out
# [1] = tested on: murine and human TNBC cells; experiment: Reactive oxygen species
# Procedure: Reactive oxygen and nitrogen species. Cancer cells in suspension were washed with PBS and loaded with 50 μM H2DCFDA (Molecular Probes, Life Technologies, D399) or 5 μM DAF-2 (Cayman Chemical, Catalog #85165) for 30 min at room temperature in the dark. Cells were washed twice with PBS and treated with various doses of Ivermectin in R10 medium. Cells were incubated for 1h in 5 ml FACS tubes at 37° C. and 5% CO2, and immediately analyzed by flow cytometry. Generation of intracellular ROS and NO results in corresponding increases in the GFP fluorescence of the H2DCFDA and DAF-2 probes, respectively.
molecule,measurement,setting,value
"Nc1ncnc2c1ncn2[C@@H]1O[C@H](COP(=O)(O)OP(=O)(O)OP(=O)(O)O)[C@@H](O)[C@H]1O [ATP, adenosine triphosphate]",CI values,"4T1.2 shRNA (P2X7); ATP 1 + I 6, 24 h",1.49
same,CI values,"4T1.2 shRNA (P2X7); ATP 1 + I 8, 24 h",1.39
same,CI values,"4T1.2 shRNA (P2X7); ATP 1 + I 10, 24 h",1.35
same,CI values,"4T1.2 shRNA (P2X7); ATP 2 + I 6, 24 h",1.18
same,CI values,"4T1.2 shRNA (P2X7); ATP 2 + I 8, 24 h",1.03
same,CI values,"4T1.2 shRNA (P2X7); ATP 2 + I 10, 24 h",1.11
same,CI values,"4T1.2 shRNA (P2X7); ATP 3 + I 6, 24 h",0.96
same,CI values,"4T1.2 shRNA (P2X7); ATP 3 + I 8, 24 h",0.91
same,CI values,"4T1.2 shRNA (P2X7); ATP 3 + I 10, 24 h",0.86
same,CI values,"4T1.2 shRNA (NT); ATP 1 + I 6, 24 h",1.18
same,CI values,"4T1.2 shRNA (NT); ATP 1 + I 8, 24 h",1.01
same,CI values,"4T1.2 shRNA (NT); ATP 1 + I 10, 24 h",1.24
same,CI values,"4T1.2 shRNA (NT); ATP 2 + I 6, 24 h",1.17
same,CI values,"4T1.2 shRNA (NT); ATP 2 + I 8, 24 h",1.01
same,CI values,"4T1.2 shRNA (NT); ATP 2 + I 10, 24 h",1.10
same,CI values,"4T1.2 shRNA (NT); ATP 3 + I 6, 24 h",0.67
same,CI values,"4T1.2 shRNA (NT); ATP 3 + I 8, 24 h",0.64
same,CI values,"4T1.2 shRNA (NT); ATP 3 + I 10, 24 h",0.63
Apyrase,effect on Ivermectin-induced cell death,4T1.2 cells,Ivermectin killing was initially enhanced
CCO[C@@H]1OC(=O)C[C@@H]1NC(=O)[C@@H]1CCCN1C(=O)[C@@H](NC(=O)c1ccc(N)c(Cl)c1)C(C)(C)C [VX-765],effect on Ivermectin-induced cell death,4T1.2 cells,demonstrated some protection
Cc1nc(N=Nc2ccc(S(=O)(=O)O)cc2S(=O)(=O)O)c(COP(=O)(O)O)c(C=O)c1O [PPADs],effect on Ivermectin-induced cell death,4T1.2 cells,did not observe any protection
"CC(=O)O[C@H]1C(=O)[C@@]2(C)[C@H]([C@H](OC(=O)c3ccccc3)[C@]3(O)C[C@H](OC(=O)[C@H](O)[C@@H](NC(=O)c4ccccc4)c4ccccc4)C(C)=C1C3(C)C)[C@]1(OC(C)=O)CO[C@@H]1C[C@@H]2O [PTX, paclitaxel]",CompuSyn CI values,4T1.2 cancer cells; PTX 0.1 + Ivermectin 1,.35
same,CompuSyn CI values,4T1.2 cancer cells; PTX 0.1 + Ivermectin 2,.52
same,CompuSyn CI values,4T1.2 cancer cells; PTX 1 + Ivermectin 1,.30
same,CompuSyn CI values,4T1.2 cancer cells; PTX 1 + Ivermectin 2,.51
CCCN(CCC)S(=O)(=O)c1ccc(C(=O)O)cc1 [Probenecid],effect on Ivermectin-induced cell death,4T1.2 cells,enhanced Ivermectin cytotoxicity
CCCCC1(C2CCCC2)Cc2cc(OCCCC(=O)O)c(Cl)c(Cl)c2C1=O (centres unmarked) [DCPIB],effect on Ivermectin-induced cell death,4T1.2 cells,exacerbates Ivermectin killing
CC(=O)N[C@@H](CS)C(=O)O [NAC],blockade of Ivermectin-induced ROS by ROS scavengers,[1],less effective against Ivermectin-induced ROS
same,effect on Ivermectin-induced cell death,4T1.2 cells,"completely failed to prevent, or even delay, Ivermectin-induced killing"
OO [H2O2],CompuSyn CI values,4T1.2 cancer cells; H2O2 100 + Ivermectin 8,.46
same,CompuSyn CI values,4T1.2 cancer cells; H2O2 100 + Ivermectin 16,.39
same,CompuSyn CI values,4T1.2 cancer cells; H2O2 1000 + Ivermectin 8,.24
same,CompuSyn CI values,4T1.2 cancer cells; H2O2 1000 + Ivermectin 16,.20
O=C(O)CN(CCN(CC(=O)O)CC(=O)O)CC(=O)O [EDTA],effect on Ivermectin-induced cell death,4T1.2 cells,cell death can be suppressed
Cc1ccc(C(=O)Nc2ccc(S(=O)(=O)O)c3cc(S(=O)(=O)O)cc(S(=O)(=O)O)c23)cc1NC(=O)c1cccc(NC(=O)Nc2cccc(C(=O)Nc3cc(C(=O)Nc4ccc(S(=O)(=O)O)c5cc(S(=O)(=O)O)cc(S(=O)(=O)O)c45)ccc3C)c2)c1 [Suramin],effect on Ivermectin-induced cell death,4T1.2 cells,Ivermectin killing was initially enhanced
Nc1ncnc2c1ncn2[C@@H](C=O)O[C@@H](C=O)COP(=O)(O)OP(=O)(O)OP(=O)(O)O [OxATP],effect on Ivermectin-induced cell death,4T1.2 cells,did not observe any protection
Nc1c(S(=O)(=O)[O-])cc(Nc2ccc(Cl)cc2)c2c1C(=O)c1ccccc1C2=O.[Na+] [PSB 069],effect on Ivermectin-induced cell death,4T1.2 cells,Ivermectin-induced cytotoxicity was suppressed
"c1ccc2c(c1)[I+]c1ccccc1-2 [DPI, Diphenyleneiodonium]",effect on Ivermectin-induced cell death,4T1.2 cells,transiently block Ivermectin-induced killing
C[C@H]1O[C@@H](O[C@H]2[C@@H](O)C[C@H](O[C@H]3[C@@H](O)C[C@H](O[C@H]4CC[C@@]5(C)[C@H](CC[C@@H]6[C@@H]5C[C@@H](O)[C@]5(C)[C@@H](C7=CC(=O)OC7)CC[C@]65O)C4)O[C@@H]3C)O[C@@H]2C)C[C@H](O)[C@@H]1O [Digoxin],effect on Ivermectin-induced cell death,4T1.2 cells,demonstrated some protection
N[C@@H](CCC(=O)N[C@@H](CS)C(=O)NCC(=O)O)C(=O)O [GSH],blockade of Ivermectin-induced ROS by ROS scavengers,[1],less effective against Ivermectin-induced ROS
same,effect on Ivermectin-induced cell death,4T1.2 cells,"completely failed to prevent, or even delay, Ivermectin-induced killing"
CN1C(=O)C(Cc2c[nH]c3ccccc23)NC1=S (centres unmarked) [Necrostatin],effect on Ivermectin-induced cell death,4T1.2 cells,demonstrated some protection
COC(=O)C[C@H](NC(=O)[C@H](C)NC(=O)[C@@H](NC(=O)OCc1ccccc1)C(C)C)C(=O)CF [Z-vad-fmk] (Cbz-Val-Ala-Asp(OMe)-CH2F),effect on Ivermectin-induced cell death,4T1.2 cells,inhibited cell death very effectively
"COc1cccc2c1C(=O)c1c(O)c3c(c(O)c1C2=O)C[C@@](O)(C(=O)CO)C[C@@H]3O[C@H]1C[C@H](N)[C@H](O)[C@H](C)O1 [DOX, doxorubicin]",CompuSyn CI values,4T1.2 cancer cells; DOX 1 + Ivermectin 2,.43
same,CompuSyn CI values,4T1.2 cancer cells; DOX 1 + Ivermectin 4,.61
same,CompuSyn CI values,4T1.2 cancer cells; DOX 2 + Ivermectin 2,.42
same,CompuSyn CI values,4T1.2 cancer cells; DOX 2 + Ivermectin 4,.56
